The text below walks through data of patent US10105357B2, “Indication of antibiotic drugs for preparation of cancer inhibition pharmaceutical composition” (LAUNX BIOMEDICAL CO., LTD., priority 2014, dated 2018).

The structures appear in SMILES notation. Where a name gives a salt, the structure may show the parent alone. Read-outs that look alike come from different tables or passages of the source.

One assay relates to cancer cell lines. The experiment in a line: Cell viability analysis (WST-1) on cancer cell lines. It is filed as cell-based, human. As to conditions: drug 10 μM, 72 hours, WST-1; Table 3.
Assay [1] concerns HI650 (Lung Adenocarcinoma). The assay is described as follows: Cell viability analysis, lung cancer HI650. It is filed as cell-based, human. As to conditions: Homo sapiens, NCI-H1650, 72 h.
For assay [2], the system named is A549 (Lung Adenocarcinoma). The assay is described as follows: Cell viability analysis, lung cancer A549. It counts as cell-based, human. The conditions noted are these: Homo sapiens, A549, 72 h.
The test system of assay [3] is AGS (Gastric Adenocarcinoma). The experiment in a line: Cell viability analysis, gastric cancer AGS. It counts as cell-based, human. As to conditions: Homo sapiens, 72 h.
Assay [4] has as its system MKN-45 (Gastric Adenocarcinoma). The experiment in a line: Cell viability analysis, gastric cancer MKN-45. It counts as cell-based, human. As to conditions: Homo sapiens, MKN-45, 72 h.
The subject of assay [5] is HepG2 (Hepatocellular Carcinoma). The experiment in a line: Cell viability analysis, hepatic cancer HepG2. As to conditions: Homo sapiens, HepG2, 72 h. It is filed as cell-based, human.
Assay [6] deals with LoVo (Colorectal Adenocarcinoma). The experiment in a line: Cell viability analysis, colon cancer LoVo. It counts as cell-based, human. As to conditions: Homo sapiens, LoVo, 72 h.
The test system of assay [7] is A375 (Amelanotic Melanoma). The experiment in a line: Cell viability analysis, skin cancer A375. It is filed as cell-based, human. As to conditions: Homo sapiens, A-375, 72 h.
Assay [8] deals with HeLa (Cervix Adenocarcinoma). The experiment in a line: Cell viability analysis, cervical cancer HeLa. The conditions noted are these: Homo sapiens, HeLa, 72 h. It counts as cell-based, human.
Assay [9] has as its system PC3 (p53−) (Prostate Adenocarcinoma). The experiment in a line: Cell viability analysis, prostate cancer PC3. It is filed as cell-based, human. As to conditions: Homo sapiens, 72 h.
Assay [10] deals with TSGH-8301 (Urinary Bladder Carcinoma). The assay is described as follows: Cell viability analysis, bladder cancer TSGH-8301. It is filed as cell-based, human. The conditions noted are these: Homo sapiens, 72 h.
The test system of assay [11] is MCF7 (Mammary Gland, Adenocarcinoma). The assay is described as follows: Cell viability analysis, breast cancer MCF7. As to conditions: Homo sapiens, MCF7, 72 h. It counts as cell-based, human.
Assay [12] concerns HL-60 (Acute Promyelocytic Leukemia). The experiment in a line: Cell viability analysis, leukemia HL-60. It counts as cell-based, human. The conditions noted are these: Homo sapiens, HL-60, 72 h.
Assay [13] relates to HCT116 (p53+) (Colorectal Carcinoma). The experiment in a line: cells. As to conditions: Homo sapiens, HCT-116, 72 h, read-out: cell viability (survival rate), HCT116.
[14] abbreviates: drug 10 μM, 72 hours, WST-1, OD450 nm, read-out: cell viability (survival rate), H1650.
Where [15] appears, read: drug 10 μM, 72 hours, WST-1, OD450 nm, read-out: cell viability (survival rate), A549.
The mark [16] stands for this setting: drug 10 μM, 72 hours, WST-1, OD450 nm, read-out: cell viability (survival rate), AGS.
[17] abbreviates: drug 10 μM, 72 hours, WST-1, OD450 nm, read-out: cell viability (survival rate), MKN-45.
The mark [18] stands for this setting: drug 10 μM, 72 hours, WST-1, OD450 nm, read-out: cell viability (survival rate), HepG2.
The mark [19] stands for this setting: read-out: cell viability (survival rate), LoVo, drug 10 μM, 72 hours, WST-1, OD450 nm.
Where [20] appears, read: drug 10 μM, 72 hours, WST-1, OD450 nm, read-out: cell viability (survival rate), A375.
Setting [21] is: drug 10 μM, 72 hours, WST-1, OD450 nm, read-out: cell viability (survival rate), HeLa.
[22] abbreviates: drug 10 μM, 72 hours, WST-1, OD450 nm, read-out: cell viability (survival rate), PC3.
[23] abbreviates: drug 10 μM, 72 hours, WST-1, OD450 nm, read-out: cell viability (survival rate), TSGH.
Where [24] appears, read: drug 10 μM, 72 hours, WST-1, OD450 nm, read-out: cell viability (survival rate), MCF7.
The mark [25] stands for this setting: drug 10 μM, 72 hours, WST-1, OD450 nm, read-out: cell viability (survival rate), HL-60.
Setting [26] is: read-out: cell viability (survival rate), H1650, drug 10 μM, 72 hours, WST-1, OD450 nm.
The mark [27] stands for this setting: read-out: cell viability (survival rate), A549, drug 10 μM, 72 hours, WST-1, OD450 nm.
[28] abbreviates: read-out: cell viability (survival rate), AGS, drug 10 μM, 72 hours, WST-1, OD450 nm.
The mark [29] stands for this setting: read-out: cell viability (survival rate), MKN-45, drug 10 μM, 72 hours, WST-1, OD450 nm.
[30] abbreviates: read-out: cell viability (survival rate), HepG2, drug 10 μM, 72 hours, WST-1, OD450 nm.
The mark [31] stands for this setting: read-out: cell viability (survival rate), A375, drug 10 μM, 72 hours, WST-1, OD450 nm.
[32] abbreviates: read-out: cell viability (survival rate), HeLa, drug 10 μM, 72 hours, WST-1, OD450 nm.
The mark [33] stands for this setting: read-out: cell viability (survival rate), PC3, drug 10 μM, 72 hours, WST-1, OD450 nm.
[34] abbreviates: read-out: cell viability (survival rate), TSGH, drug 10 μM, 72 hours, WST-1, OD450 nm.
Setting [35] is: read-out: cell viability (survival rate), MCF7, drug 10 μM, 72 hours, WST-1, OD450 nm.
The mark [36] stands for this setting: read-out: cell viability (survival rate), HL-60, drug 10 μM, 72 hours, WST-1, OD450 nm.

In general, viability refers to a read-out of living cells in per cent, often relative to untreated cells. `NC[C@H]1O[C@H](O[C@H]2[C@H](O)[C@@H](O[C@H]3O[C@H](CO)[C@@H](O)[C@H](N)[C@H]3O)[C@H](N)C[C@@H]2N)[C@H](N)[C@@H](O)[C@@H]1O` [Bekanamycin]: in the assay on cancer cell lines, the “inhibition effect on different cancer cell lines” value is listed as “significant inhibition effect”. Moreover, the viability at 10 µM worked out at 80.8% in assay [1] (setting [14]); 58.3% in [2] (setting [15]); 81.7% in assay [3] (setting [16]); 74.5% in assay [4] (setting [17]); 85.3% in assay [5] (setting [18]); 96.9% in assay [6] (setting [19]). Besides, the viability at 10 µM in assay [7] (setting [20]) is 55.5%; in assay [8] (setting [21]) it was 95.2%; in [9] (setting [22]), 76.3%; in assay [10] (setting [23]), 76.2%; in [11] (setting [24]) it was 57.5%; in assay [12] (setting [25]), 96.8%. Also, the viability at 10 µM in assay [13] stood at 73.6%.
As for `CC(C)(O/N=C(\C(=O)N[C@@H]1C(=O)N2C(C(=O)[O-])=C(C[n+]3ccccc3)CS[C@H]12)c1csc(N)n1)C(=O)O` [Ceftazidime Pentahydrate], in the assay with cancer cell lines, the “inhibition effect on different cancer cell lines” value is on record as “significant inhibition effect”. For the same molecule, the viability at 10 µM came out at 58.5% in [1] (setting [14]); 26.7% in assay [2] (setting [15]); 53.5% in assay [3] (setting [16]); 94.6% in [4] (setting [17]); 93.6% in assay [5] (setting [18]); 72.5% in [6] (setting [19]). In addition, the viability at 10 µM in assay [7] (setting [20]) was 87.7%; in assay [8] (setting [21]), 70%; in assay [9] (setting [22]) it was 38.5%; in assay [10] (setting [23]), 78.7%; in [11] (setting [24]) it was 35.5%; in assay [12] (setting [25]) it was 89.3%. The viability at 10 µM in assay [13] is 89.5%.
On to `CCn1nc(C(=O)O)c(=O)c2cc3c(cc21)OCO3` [Cinoxacin], for which, in the assay with cancer cell lines, the “inhibition effect on different cancer cell lines” value is on record as “significant inhibition effect”. For the same molecule, the viability at 10 µM was 67.1% in assay [1] (setting [26]); 74.2% in assay [2] (setting [27]); 83.2% in assay [3] (setting [28]); 98.9% in assay [4] (setting [29]); 69.7% in [5] (setting [30]); 97% in assay [6] (setting [19]). The viability at 10 µM in assay [7] (setting [31]) worked out at 68.3%; in assay [8] (setting [32]), 64%; in [9] (setting [33]), 87%; in assay [10] (setting [34]) it was 71.5%; in assay [11] (setting [35]) it was 74.9%; in assay [12] (setting [36]) it was 109%. Also, the viability at 10 µM in assay [13] came out at 66.2%.
As to `CN1CCN(c2cc3c(cc2F)c(=O)c(C(=O)O)cn3-c2ccc(F)cc2)CC1` [Difloxacin HCl], the “inhibition effect on different cancer cell lines” value in the assay on cancer cell lines is recorded as “significant inhibition effect”. Also, the viability at 10 µM worked out at 77.5% in assay [1] (setting [14]); 64.5% in assay [2] (setting [15]); 82.9% in assay [3] (setting [16]); 79.4% in assay [4] (setting [17]); 71.2% in assay [5] (setting [18]); 95.7% in assay [6] (setting [19]). For the same molecule, the viability at 10 µM was 58.5% in assay [7] (setting [20]); 130% in assay [8] (setting [21]); 77.3% in assay [9] (setting [22]); 52% in [10] (setting [23]); 52.3% in [11] (setting [24]); 77% in assay [12] (setting [25]). Also, the viability at 10 µM in assay [13] was 96.7%.
For the molecule `Cl.NCCc1ccc(O)c(O)c1` [Dopamine hydrochloride (Inotropin), Dopamine hydrochloride], the “inhibition effect on different cancer cell lines” value with cancer cell lines was “significant inhibition effect”. The viability at 10 µM amounted to 76% in assay [1] (read-out: cell viability (survival rate), H1650); 102% in assay [2] (read-out: cell viability (survival rate), A549); 74.3% in assay [3] (read-out: cell viability (survival rate), AGS); 85% in assay [4] (read-out: cell viability (survival rate), MKN-45); 84.3% in assay [6] (read-out: cell viability (survival rate), LoVo); 83% in assay [7] (read-out: cell viability (survival rate), A375). For the same molecule, the viability at 10 µM was determined as 85.1% in assay [8] (read-out: cell viability (survival rate), HeLa); 115% in [9] (read-out: cell viability (survival rate), PC3); 57.7% in assay [10] (read-out: cell viability (survival rate), TSGH); 148% in assay [11] (read-out: cell viability (survival rate), MCF7); 91.5% in assay [12] (read-out: cell viability (survival rate), HL-60); 90.6% in assay [13].
For `CCc1c(Cl)c(O)c(Cl)c(O)c1C(=O)O[C@H]1[C@H](O)[C@H](OC)[C@H](OC/C2=C\C=C\C[C@H](O)/C(C)=C/[C@H](CC)[C@@H](O[C@@H]3OC(C)(C)[C@@H](OC(=O)C(C)C)[C@H](O)[C@@H]3O)/C(C)=C/C(C)=C/C[C@@H]([C@@H](C)O)OC2=O)O[C@@H]1C` [Fidaxomicin], the “inhibition effect on different cancer cell lines” value in the assay on cancer cell lines was “significant inhibition effect”. Moreover, the viability at 10 µM in [1] (setting [26]) came out at 61.2%; in [2] (setting [27]), 40.6%; in [3] (setting [28]), 94.9%; in assay [4] (setting [29]), 94.2%; in [5] (setting [30]) it was 99.6%; in assay [6] (setting [19]) it was 89.6%. Besides, the viability at 10 µM in assay [7] (setting [31]) stood at 70.3%; in assay [8] (setting [32]) it was 82.2%; in assay [9] (setting [33]), 59.4%; in [10] (setting [34]) it was 82.4%; in assay [11] (setting [35]), 46.6%; in assay [12] (setting [36]), 99.2%. In [13], the viability at 10 µM worked out at 102%.
`CN(C)c1ccc(O)c2c1C[C@H]1C[C@H]3[C@H](N(C)C)C(O)=C(C(N)=O)C(=O)[C@@]3(O)C(O)=C1C2=O` [Minocycline HCl]: the “inhibition effect on different cancer cell lines” value in the assay with cancer cell lines is recorded as “significant inhibition effect”. Moreover, the viability at 10 µM in assay [1] (setting [26]) came to 74%; in assay [2] (setting [27]), 42.5%; in assay [3] (setting [28]), 87.6%; in assay [4] (setting [29]), 95%; in [5] (setting [30]) it was 103%; in assay [6] (setting [19]), 87.3%. Moreover, the viability at 10 µM in assay [7] (setting [31]) worked out at 81.6%; in [9] (setting [33]), 53.8%; in assay [10] (setting [34]), 60.4%; in assay [11] (setting [35]), 49.9%; in assay [12] (setting [36]), 68.1%; in assay [13], 105%.
